Test results as given in US8865684B2, “Morpholin-4-ium 4 methoxyphenyl (morpholino) phosphinodithioate (GYY4137) as a novel vasodilator agent” (National University of Singapore, priority 2009, dated 2014).

Tests used:
[1] = H2S release in vitro, DTNB assay; assay type: physicochemical; conditions: phosphate buffer
[2] = test system: anesthetized rat; assay: Blood pressure in the anesthetized rat; assay type: in vivo
[3] = test system: phenylephrine-precontracted rat aorta; assay: tissue or blood
[4] = test system: isolated perfused rat kidney; assay: Isolated perfused rat kidney, perfusion pressure
Description: (§1) For experiments using perfused kidney or heart, Sprague-Dawley rats (male; weight, 230 to 270 g) were anesthetized as described above. […] In kidneys, dose-response curves (volumes <10 μL) were obtained for bolus-injected noradrenaline, angiotensin II, or U46619.

[5] = GYY4137 133 μmol/kg IV or IP; NaHS 20 μmol/kg IV; up to 180 minutes
Description: Blood (0.5 mL) was withdrawn at timed intervals, anticoagulated with heparin (50 U/mL), and centrifuged (2000 g, 20 minutes). […] The zinc acetate assay measures free H2S plus related species including HS^− (hydrosulfide anion) and S2^− (sulfide). Accordingly, results for plasma H2S reported herein indicate the sum total of these species. All experiments on intact animals were undertaken with the approval of the local National University of Singapore Institutional Animal Care and Use Committee.

[6] = test system: Langendorff-perfused rat heart; assay: Langendorff-perfused rat heart; conditions: at 30 minutes
Description: as §1

[7] = test system: rat aortic vascular smooth muscle cells (A10); assay: cAMP and cGMP in cultured vascular smooth muscle cells (ELISA); assay type: cell-based; conditions: 100 μmol/L, 45 minutes, isobutyl methylxanthine 300 μmol/L; control 11.3±1.4; n=6
From the text: Normal rat aortic vascular smooth muscle cells (A10) were obtained from the American Type Culture Collection (ATCC, Manassas, Va.).

SMILES: S [NaHS, sodium hydrosulfide]
- H2S release in the DTNB assay [1]: instantaneous
- effect on blood pressure ([2]; NaHS 2.5 to 20 μmol/kg IV, GYY4137 26.6 to 133 μmol/kg IV): immediate, transient (10 to 30 seconds), and dose-related falls
- time course: response to a standard concentration of phenylephrine after drug [3]: did not reduce
- vasorelaxant effect after removal of the endothelium or exposure to L-NAME or ODQ [3]: reduced
- vasorelaxant effect in presence of KATP channel blockers (glibenclamide or PNU37883A) [3]: reduced
- EC50 ([3]; Rattus norvegicus, phenylephrine-precontracted, read-out: EC50, relaxation of aortic rings): 274 ± 22.2 µM
- Emax ([3]; Rattus norvegicus, phenylephrine-precontracted, read-out: Emax, relaxation of aortic rings): 63.4 ± 3.3%
- approximate EC70 ([3]; concentration used for time course experiments): ~300 µM
- transient fall in perfusion pressure ([4]; bolus 10 nmol, n=10): 10.2±2.8 mm Hg
- fall in perfusion pressure (biphasic response) ([4]; bolus 5 μmol, n=8): 11.6±4.5 mm Hg
- rise in perfusion pressure (biphasic response) ([4]; bolus 5 μmol, n=8): 22.7±6.7 mm Hg
- plasma H2S (H2S, HS−, S2−) concentration [5]: did not elevate
- reduction of cardiac contractility (left ventricular diastolic pressure) ([6]; 100 μmol/L): 42.0±7.8%
- reduction of heart rate ([6]; NaHS 100 μmol/L): 53.2±6.6%

SMILES: C1CCC(N=C(NC23CC4CC(CC(C4)C2)C3)N2CCOCC2)CC1.Cl [PNU37883A]
- blood pressure after PNU37883A ([2]; 15 minutes after PNU37883A 26.2 μmol/kg IP, versus 105.6±3.5 before injection, n=5, P=0.053): 117.2±3.7 mm Hg

SMILES: C=C[C@@]1(C)CC(=O)[C@]2(O)[C@@]3(C)[C@@H](O)CCC(C)(C)[C@@H]3[C@H](O)[C@H](OC(C)=O)[C@@]2(C)O1 [forskolin]
- cAMP concentration [7]: 79.6 ± 1.6 nmol/L
